# Assay results taken from patent publication US20090030037A1, “Sustained Release Formulation and Dosing Schedules of Leukotriene Synthesis Inhibitor for Human Therapy” (deCODE Genetics ehf., priority 2005, published 2009).
# What was measured:
# Type in all cases: in vivo, human
# [1] = Population pharmacokinetic analysis (studies DG-031-201, DG-031-203)
# Description: Preliminary population pharmacokinetic (PK) analysis was also carried out based on clinical studies DG-031-201 and DG-031-203. Based on visual inspection of the individual and mean time course of DG-031 concentrations, a simple one compartmental disposition model following first order oral absorption, and an absorption lag time was fit to the data. A mixed effects modeling approach was used. The pharmacokinetic model parameters (fixed effects) included oral clearance (CL), distribution volume (V), oral absorption (ka), and absorption lag (tiag). The statistical model includes inter-individual random effects as well as a residual error term. All inter-subject random effect parameters (it's) and residual error terms (&) are assumed to be normally distributed with mean of zero and variance o2 and a2, respectively. Random effects on all pharmacokinetic model parameters were explored. Maximum likelihood estimates of the structural (0's) and statistical model parameters were estimated using an approximation to the mixed effect log-likelihood as implemented in the NONMEM program (NONMEM Version Vi).
# The influence of patient characteristics (covariates) on pharmacokinetic parameters was explored. Age, gender, body weight, and CrCL (creatinine clearance) were included in the model as covariates if warranted.
# Model selection will be done on the basis of the log-likelihood criterion (p<0.05) and visual inspection of goodness-of-fit plots. The difference in −2 times the log of the likelihood (−2LL) between a full and reduced model is asymptotically χ^2 distributed with degrees of freedom equal to the difference in number of parameters between the two models. For instance, a decrease of more than 3.84 in −2LL is considered significant at the p<0.05 level for 1 additional parameter. Standard errors of the parameter estimates are approximated using the asymptotic covariance matrix.
# LDL-C = assay: Study DG-031-204: LDL-C; details: for LDL-C increase, mean change from baseline: after 4 weeks
# Description: (§1) An additional single site, open label study was carried out to obtain biomarker and safety data on additional DG-031 doses (i.e., 1000 mg and 1500 mg). This study examined the safety, tolerability and dose-related effects of DG-031 on inflammatory biomarkers including: LTB4, hsCRP, and MPO. A total of 119 patients with a prior history of CAD and MI were randomized to receive either 1000 mg DG-031 (500 mg BID) or 1500 mg DG-031 (500 mg TID) daily for 4-6 weeks. Treatment with DG-031 in addition to the subject's standard care, medication, and treatment, was prescribed by the patient's cardiologist. A majority of the subjects received statin therapy before, during and after the study. Follow-up assessments were performed 2 weeks after the end of study drug administration.
# (§2) The biomarkers were analyzed as described in Example 1. Statistical analysis of the data was carried out using a one-sample t-test on change from baseline with a two-sided nominal significance level of 0.050. Biomarker concentrations were log-transformed and a simple last observation carried forward (LOCF) scheme was used to impute missing observations.
# LDL-C was measured weekly after administration of DG-031 500 mg BID or 500 mg TID. The mean change from baseline after 4 weeks of treatment was an increase of 9% (p=0.004; n=52) for 500 mg BID and an increase of 9% (p<0.001; n=58) for the 500 TID group. […] The LDL-C effect appeared to increase over time and tended toward baseline values at the 2-week follow up visit. A preliminary exposure-response analysis of data from studies DG-031-201, DG-031-203, and DG-031-204 supported a dose related increase in LDL-C.
# hsCRP = assay: Study DG-031-204: hsCRP; details: after 4 weeks
# Description: as §1, §2
# Additionally, hsCRP was measured weekly and tended to decrease in the 1000 mg treatment group. […]
smiles,measurement,setting,value
"O=C(O)[C@@H](c1ccc(OCc2ccc3ccccc3n2)cc1)C1CCCC1 [DG-031, (R)-(+)-alpha-cyclopentyl-4-(2-quinolinylmethoxy)-Benzeneacetic acid]",PK linearity,[1]; 250 mg to 1500 mg administered daily,linear PK
same,oral CL,[1]; 90 kg patient,5.86 L/h
same,Accumulation,[1]; BID dosing,12%
same,V (distribution volume),"[1]; human, plasma, oral",32 L
same,"V, inter-subject CV %","[1]; human, plasma, oral",44%
same,half-life,"[1]; human, plasma, oral, MI patients, estimated, read-out: Terminal elimination half-life (converted)",~4 h
same,Effect of body weight on CL,[1]; in vivo,minor effects
same,"LDL-C increase, mean change from baseline",LDL-C; 500 mg BID,9%
same,"LDL-C increase, mean change from baseline",LDL-C; 500 mg TID,9%
same,"LDL-C percent change from baseline after 4 weeks of DG-031 administration, Mean",LDL-C; dose 250,2.3%
same,"LDL-C percent change from baseline after 4 weeks of DG-031 administration, Mean",LDL-C; dose 500,5.0%
same,"LDL-C percent change from baseline after 4 weeks of DG-031 administration, Mean",LDL-C; dose 750,7.7%
same,"LDL-C percent change from baseline after 4 weeks of DG-031 administration, Mean",LDL-C; dose 1000,10.3%
same,"LDL-C percent change from baseline after 4 weeks of DG-031 administration, Mean",LDL-C; dose 1250,13.0%
same,"LDL-C percent change from baseline after 4 weeks of DG-031 administration, Mean",LDL-C; dose 1500,15.7%
same,"hsCRP reduction, mean change from baseline",hsCRP; 1000 mg treatment group,20%
same,"hsCRP reduction, mean change from baseline",hsCRP; 1500 mg treatment group,3%
